Assay results taken from ChEMBL document CHEMBL4043204, “meso-Dihydroguaiaretic acid derivatives with antibacterial and antimycobacterial activity” (Bioorg Med Chem, 2017).
≈ marks a conversion by molar mass, not a printed value. Calls of active or inactive are those of the source. The calls are words filed in the database; no cut-off is given here.

Assays:
[1] = test system: Escherichia coli; assay: Antibacterial activity against oxacillin-resistant Escherichia coli OXA-48 assessed as inhibition of microbial growth up to 50 ug/ml incubated for 24 hrs by microdilution assay; assay type: functional
[2] = test system: Vero; assay: Cytotoxicity against African green monkey Vero cells assessed as reduction in cell viability incubated for 24 hrs by trypan blue staining based assay; settings: Chlorocebus sabaeus
[3] = test system: Klebsiella pneumoniae; assay: Antibacterial activity against NDM-1 positive Klebsiella pneumoniae (14-3335) assessed as inhibition of microbial growth up to 50 ug/ml incubated for 24 hrs by microdilution assay; assay type: functional
[4] = test system: Acinetobacter baumannii; assay: Antibacterial activity against carbapenem-resistant Acinetobacter baumannii (12-666) assessed as inhibition of microbial growth up to 50 ug/ml incubated for 24 hrs by microdilution assay; assay type: functional
[5] = test system: Pseudomonas aeruginosa; assay: Antibacterial activity against carbapenem-resistant Pseudomonas aeruginosa (13-1391) assessed as inhibition of microbial growth up to 50 ug/ml incubated for 48 hrs by microdilution assay; assay type: functional
[6] = test system: Mycobacterium tuberculosis; assay: Antimycobacterial activity against Mycobacterium tuberculosis H37Rv ATCC 27294 assessed as inhibition of mycobacterial growth incubated for 2 weeks by MABA method; assay type: functional; settings: for MIC: Mycobacterium tuberculosis, H37Rv ATCC 27294, 336 h
[7] = Selectivity index, ratio of IC50 for cytotoxicity against African green monkey Vero cells to MIC for Mycobacterium tuberculosis H37Rv ATCC 27294; assay type: toxicity, cell-based; settings: read-out: Selectivity Index
[8] = test system: Providencia rettgeri; assay: Antibacterial activity against NDM-1 positive Providencia rettgeri assessed as inhibition of microbial growth up to 50 ug/ml incubated for 24 hrs by microdilution assay; assay type: functional
[9] = test system: Stenotrophomonas maltophilia; assay: Antibacterial activity against trimethoprim-sulfamethoxazole-resistant Stenotrophomonas maltophilia assessed as inhibition of microbial growth up to 50 ug/ml incubated for 24 hrs by microdilution assay; assay type: functional
[10] = test system: Klebsiella pneumoniae; assay: Antibacterial activity against extended-spectrum beta-lactamase-positive Klebsiella pneumoniae (14-2081) assessed as inhibition of microbial growth up to 50 ug/ml incubated for 24 hrs by microdilution assay; assay type: functional
[11] = test system: Escherichia coli; assay: Antibacterial activity against extended-spectrum beta-lactamase-positive Escherichia coli (14-2081) assessed as inhibition of microbial growth up to 50 ug/ml incubated for 24 hrs by microdilution assay; assay type: functional
[12] = test system: Mycobacterium tuberculosis; assay: Antimycobacterial activity against Mycobacterium tuberculosis H37Rv ATCC 27294 assessed as inhibition of mycobacterial growth up to 50 ug/ml incubated for 2 weeks by MABA method; assay type: functional

Structure (SMILES)	Activity [1]	IC50 [2]	Activity [3]	Activity [4]	Activity [5]	-logMIC [6]	MIC [6]	selectivity ratio [7]	Activity [8]	Activity [9]	Activity [10]	Activity [11]	growth inhibition (GI) [12]
COc1cc(C[C@@H](C)[C@@H](C)Cc2ccc(OC(C)=O)c(OC)c2)ccc1OC(C)=O	inactive	95.1 µg/mL (≈ 230 µM)	inactive	inactive	inactive	4.23	50 µg/mL (≈ 121 µM)	1.9	inactive	inactive	inactive	inactive	
COc1cc(C[C@@H](C)[C@@H](C)Cc2ccc(OC(=O)c3ccccc3[N+](=O)[O-])c(OC)c2)ccc1OC(=O)c1ccccc1[N+](=O)[O-]	inactive		inactive	inactive	inactive	4.03			inactive	inactive	inactive	inactive	inactive
CCCCCCCC/C=C\CCCCCCCC(=O)Oc1ccc(C[C@@H](C)[C@@H](C)Cc2ccc(OC(=O)CCCCCCC/C=C\CCCCCCCC)c(OC)c2)cc1OC	inactive		inactive	inactive	inactive	4.88			inactive	inactive	inactive	inactive	inactive
COc1cc(C[C@@H](C)[C@@H](C)Cc2ccc(OC(=O)c3ccccn3)c(OC)c2)ccc1OC(=O)c1ccccn1	inactive		inactive	inactive	inactive	3.92			inactive	inactive	inactive	inactive	inactive
COc1cc(C[C@@H](C)[C@@H](C)Cc2ccc(OCCN3CCCC3)c(OC)c2)ccc1OCCN1CCCC1	inactive	> 487 µg/mL	inactive	inactive	inactive		25 µg/mL (≈ 47.6 µM)	> 19.5	inactive	inactive	inactive	inactive	
CCCC(=O)Oc1ccc(C[C@@H](C)[C@@H](C)Cc2ccc(OC(=O)CCC)c(OC)c2)cc1OC	inactive		inactive	inactive	inactive	4.04			inactive	inactive	inactive	inactive	inactive
CCCCCCCCCCCCCCCC(=O)Oc1ccc(C[C@@H](C)[C@@H](C)Cc2ccc(OC(=O)CCCCCCCCCCCCCCC)c(OC)c2)cc1OC	inactive		inactive	inactive	inactive	4.02			inactive	inactive	inactive	inactive	inactive
COc1cc(C[C@@H](C)[C@@H](C)Cc2ccc(OC(=O)c3cccnc3)c(OC)c2)ccc1OC(=O)c1cccnc1	inactive	36.3 µg/mL (≈ 67.1 µM)	inactive	inactive	inactive	4.2	12.5 µg/mL (≈ 23.1 µM)	2.9	inactive	inactive	inactive	inactive	
COc1cc(C[C@@H](C)[C@@H](C)Cc2ccc(OCCN(C)C)c(OC)c2)ccc1OCCN(C)C	inactive	> 487 µg/mL	inactive	inactive	inactive	4.32	6.25 µg/mL (≈ 13.2 µM)	> 77.9	inactive	inactive	inactive	inactive	
CCCCCCCCCCCCCCCCCC(=O)Oc1ccc(C[C@@H](C)[C@@H](C)Cc2ccc(OC(=O)CCCCCCCCCCCCCCCCC)c(OC)c2)cc1OC	inactive		inactive	inactive	inactive	3.85			inactive	inactive	inactive	inactive	inactive
CCN(CC)CCOc1ccc(C[C@@H](C)[C@@H](C)Cc2ccc(OCCN(CC)CC)c(OC)c2)cc1OC	inactive	36.2 µg/mL (≈ 68.5 µM)	inactive	inactive	inactive	4.55	25 µg/mL (≈ 47.3 µM)	1.45	inactive	inactive	inactive	inactive	
COc1cc(C[C@@H](C)[C@@H](C)Cc2ccc(OC(=O)c3cnccn3)c(OC)c2)ccc1OC(=O)c1cnccn1	inactive		inactive	inactive	inactive	4.23	50 µg/mL (≈ 92.2 µM)		inactive	inactive	inactive	inactive	
COc1cc(C[C@@H](C)[C@@H](C)Cc2ccc(OC(=O)c3ccc(Br)cc3)c(OC)c2)ccc1O (racemic)	inactive	112 µg/mL (≈ 217 µM)	inactive	inactive	inactive	4.58	12.5 µg/mL (≈ 24.3 µM)	8.93	inactive	inactive	inactive	inactive	
COc1cc(C[C@@H](C)[C@@H](C)Cc2ccc(OC(=O)c3ccccc3[N+](=O)[O-])c(OC)c2)ccc1O (racemic)	inactive	97.1 µg/mL (≈ 202 µM)	inactive	inactive	inactive	3.94	12.5 µg/mL (≈ 26.1 µM)	7.76	inactive	inactive	inactive	inactive	
COc1cc(C[C@@H](C)[C@@H](C)Cc2ccc(OC(=O)c3ccccc3)c(OC)c2)ccc1O (racemic)	inactive	125 µg/mL (≈ 287 µM)	inactive	inactive	inactive	4.61	12.5 µg/mL (≈ 28.8 µM)	9.97	inactive	inactive	inactive	inactive	
COc1cc(C[C@@H](C)[C@@H](C)Cc2ccc(OCCN3CCCC3)c(OC)c2)ccc1O (racemic)	inactive	> 487 µg/mL	inactive	inactive	inactive	5.25	12.5 µg/mL (≈ 29.2 µM)	> 39	inactive	inactive	inactive	inactive	
COc1cc(C[C@@H](C)[C@@H](C)Cc2ccc(OC(=O)c3cccnc3)c(OC)c2)ccc1O (racemic)	inactive	71.4 µg/mL (≈ 164 µM)	inactive	inactive	inactive	4.05	50 µg/mL (≈ 115 µM)	1.43	inactive	inactive	inactive	inactive	
COc1cc(C[C@@H](C)[C@@H](C)Cc2ccc(OCCN(C)C)c(OC)c2)ccc1O (racemic)	inactive	327 µg/mL (≈ 813 µM)	inactive	inactive	inactive	4.53	12.5 µg/mL (≈ 31.1 µM)	26.1	inactive	inactive	inactive	inactive	
COc1cc(C[C@@H](C)[C@@H](C)Cc2ccc(OCCN3CCOCC3)c(OC)c2)ccc1O (racemic)	inactive		inactive	inactive	inactive				inactive	inactive	inactive	inactive	inactive
CC[C@@H](CO)NCCN[C@@H](CC)CO [ETHAMBUTOL]		391 µg/mL (≈ 1910 µM)					3.12 µg/mL (≈ 15.3 µM)	125					
